Tests used:
Carrageenin Edema = assay: Carrageenin edema inhibitory action (rat hind paw swelling); format: in vivo, male rats (SLC-SD strain); conditions: po, 3 h, 400 mg/kg orally, one hour before 0.1 ml of 0.5% carrageenin into right hind paw, measured three hours later, vs control group, read-out: Carrageenin Edema Inhibitory Rate (%)
Experimental: Five male rats (SLC-SD strain, five weeks age, supplied by Seidokyo) were used in one group in the experiment. Drugs to be tested were given orally at a dose of 400 mg/kg and, one hour later, 0.1 ml of 0.5% carrageenin was injected subcutaneously to right hind paw. Three hours later, volumes of the right hind paws were measured, volumes of the paws before the carrageenin injection were deducted therefrom, and the resulting volumes were defined as a degree of swelling.
The inhibitory rates were calculated from mean degree of swelling of the drug-administered groups and the control group and the result is shown in Table 1.

male mice = conditions: mouse, in vivo, po, 2000 mg/kg

Row | SMILES | inhibition in vivo at 400 mg/kg (Carrageenin Edema) | Acute toxicity (male mice)
1 | COc1cc2ccccc2cc1-c1nc(N)nc(N)n1 [Example 1, 2,4-diamino-6-(2-methoxy-3-naphthyl)-s-triazine] | 60.3% | no toxicity was observed
2 | COc1ccc(-c2nc(N)nc(NC(=O)c3cccnc3)n2)c2ccccc12 [Example 2, 2-amino-4-nicotinoylamino-6-(1-methoxy-4-naphthyl)-s-triazine] | 34.7% | no toxicity was observed
3 | Nc1nc(NC(=O)c2cccnc2)nc(-c2cc3ccccc3cc2F)n1 [Example 3, 2-amino-4-nicotinoylamino-6-(2-fluoro-3-naphthyl)-s-triazine] | 56.5% | no toxicity was observed
4 | Nc1nc(N)nc(-c2cc3ccccc3cc2OCc2ccccc2)n1 [Example 5, 2,4-diamino-6-(2-benzyloxy-3-naphthyl)-s-triazine] | 30.4% | 
5 | Nc1nc(N)nc(-c2ccc(OCc3ccccc3)c3ccccc23)n1 [Example 6, 2,4-diamino-6-(1-benzyloxy-4-naphthyl)-s-triazine] | 30.9% | 
6 | COc1ccc2ccccc2c1-c1nc(N)nc(N)n1 [Example 7, 2,4-diamino-6-(2-methoxy-1-naphthyl)-s-triazine] | 44.6% | 
7 | COc1ccc(-c2nc(N)nc(N)n2)c2ccccc12 [Example 9, 2,4-diamino-6-(1-methoxy-4-naphthyl)-s-triazine] | 52.4% | no toxicity was observed
8 | Nc1nc(N)nc(-c2ccc3cc(OCc4ccccc4)ccc3c2)n1 [Example 10, 2,4-diamino-6-(2-benzyloxy-6-naphthyl)-s-triazine] | 50.3% | 
9 | Nc1nc(N)nc(-c2cc3ccccc3cc2F)n1 [Example 11, 2,4-diamino-6-(2-fluoro-3-naphthyl)-s-triazine] | 48.8% | 
10 | Nc1nc(N)nc(-c2cc3ccccc3cc2Cl)n1 [Example 12, 2,4-diamino-6-(2-chloro-3-naphthyl)-s-triazine] | 61.3% | no toxicity was observed
11 | Nc1nc(N)nc(-c2cc3ccccc3cc2Br)n1 [Example 13, 2,4-diamino-6-(2-bromo-3-naphthyl)-s-triazine] | 49.1% | 
12 | Nc1nc(N)nc(-c2ccc(Cl)c3ccccc23)n1 [Example 14, 2,4-diamino-6-(1-chloro-4-naphthyl)-s-triazine] | 42.6% | 
13 | Nc1nc(N)nc(-c2ccc(Br)c3ccccc23)n1 [Example 15, 2,4-diamino-6-(1-bromo-4-naphthyl)-s-triazine] | 48.4% | 
14 | COc1ccc2cc(-c3nc(N)nc(N)n3)ccc2c1 [Example 16, 2,4-diamino-6-(2-methoxy-6-naphthyl)-s-triazine] | 51.1% | 
15 | Nc1nc(NC(=O)c2cccnc2)nc(-c2ccc3ccccc3c2)n1 [Example 18, 2-Amino-4-nicotinoylamino-6-beta-naphthyl-s-triazine] | 24.8% | no toxicity was observed
16 | COc1cc2ccccc2cc1-c1nc(N)nc(NC(=O)c2cccnc2)n1 [Example 19, 2-amino-4-nicotinamido-6-(2-methoxy-3-naphthyl)-s-triazine] | 35% | 
17 | Nc1nc(NC(=O)c2cccnc2)nc(-c2ccc3cc(OCc4ccccc4)ccc3c2)n1 [Example 23, 2-amino-4-nicotin-amido-6-(6-benzyloxy-2-naphthyl)-s-triazine] | 28.1% | no toxicity was observed
18 | Nc1nc(NC(=O)c2cccnc2)nc(-c2ccc(Cl)c3ccccc23)n1 [Example 24, 2-amino-4-nicotinamido-6-(1-chloro-4-naphthyl)-s-triazine] | 25% | no toxicity was observed
19 | Nc1nc(NC(=O)c2cccnc2)nc(-c2ccc(Br)c3ccccc23)n1 [Example 25, 2-amino-4-nicotinamidio-6-(1-bromo-4-naphthyl)-s-triazine] | 25.1% | 
20 | Nc1nc(NC(=O)c2cccnc2)nc(-c2cc3ccccc3cc2Br)n1 [Example 27, 2-amino-4-nicotinamido-6-(2-bromo-3-naphthyl)-s-triazine] | 33.5% | 
21 | Nc1nc(NC(=O)c2cccnc2)nc(-c2ccc3ccccc3c2O)n1 [Example 28, 2-amino-4-nicotinamido-6-(1-hydroxy-2-naphthyl)-s-triazine] | 19.4% | no toxicity was observed

From patent US4554275A, “Triazine derivatives” (Nippon Shinyaku Co., Ltd., priority 1982, dated 1985)
